# According to patent US20150119410A1, “BIOMARKERS OF RESPONSE TO NAE INHIBITORS” (MILLENNIUM PHARMACEUTICALS, INC., priority 2011, published 2015):
# pEC50: −log10 of the molar value.
# What was measured:
# Experiment in all cases: Cell line panel 2 high-content screen
# Type in all cases: cell-based
# [1] = test system: 647-V; conditions: Homo sapiens; 647-V (urinary_tract); 72 hours
# Protocol: (§1) To support clinical development and identify potential biomarkers of tumor sensitivity or resistance, two large cancer cell line panels (Panel 1, N=653 (McDermott et al. (2007) PNAS 104:19936-19941); Panel 2, N=240 (O'Day et al. (2010) Fourth AACR International Conference on Molecular Diagnostics in Cancer Therapeutic Development)) were treated with MLN4924 and cell viability data (IC50, EC50, and POC—Percentage of Control) were generated.
# (§2) Panel 2 (Ricerca Biosciences, Inc., Bothell, Wash.). MLN4924 was added in half-log dilutions for 10 concentrations and treated for 72 hours. High-content cell screening by fluorescence microscopy included image analysis to generate several types of data. Results included EC50 values (after measurement of cell numbers, the EC50 concentration was calculated from the inflection point of a curve of percent of control (POC) against log of MLN4924 concentration), IC50 values (from the POC-log MLN4924 plot, IC50 is the concentration at 50% maximal possible response), apoptosis (measurement of activation of caspase 3 plotted against log of MLN4924 concentration, determined as the concentration for >5 fold induction), and mitotic activity (determined by measuring the fold increase of phospho-histone 3). A comparison of EC50 to IC50 (FIG. 3) allowed assignment of cell lines to sensitive, insensitive or resistant. Final identification of a cell line as sensitive or resistant was based on the EC50 values. The cutoff for sensitivity is a median EC50 of less than the median value of all POC's recorded in the panel (<0.36), borderline sensitivity was associated with median EC50 of 0.36 to 1.67 and insensitive or resistant cell lines were identified by EC50 greater than the 3rd quartile of all POC's in the panel (>1.67).
# [2] = test system: ACHN; conditions: Homo sapiens; ACHN (kidney); 72 hours
# Protocol: as §1, §2
# [3] = test system: BV-173; conditions: BV-173 (haematopoietic, lymphoid_tissue)
# Protocol: as §1, §2
# [4] = test system: BxPC-3; conditions: Homo sapiens; BxPC-3 (pancreas); 72 hours
# Protocol: as §1, §2
# [5] = test system: CAL-27; conditions: Homo sapiens; CAL-27 (upper aerodigestive tract); 72 hours
# Protocol: as §1, §2
# [6] = test system: CAPAN-1; conditions: Homo sapiens; CAPAN-1 (pancreas); 72 hours
# Protocol: as §1, §2
# [7] = test system: CFPAC-1; conditions: Homo sapiens; CFPAC-1 (pancreas); 72 hours
# Protocol: as §1, §2
# [8] = test system: COLO-205; conditions: Homo sapiens; COLO-205 (intestine); 72 hours
# Protocol: as §1, §2
# [9] = test system: COLO320 HSR; conditions: Homo sapiens, COLO-320-HSR; COLO320 HSR (intestine); 72 hours
# Protocol: as §1, §2
# [10] = test system: FADU; conditions: Homo sapiens; FADU (upper aerodigestive tract); 72 hours
# Protocol: as §1, §2
# [11] = test system: HCT-15; conditions: Homo sapiens; HCT-15 (intestine); 72 hours
# Protocol: as §1, §2
# [12] = test system: HT29; conditions: Homo sapiens; HT29 / HT-29 (intestine); 72 hours
# Protocol: as §1, §2
# [13] = test system: LS-174T; conditions: Homo sapiens, LS174T; LS-174T (large_intestine); 72 hours
# Protocol: as §1, §2
# [14] = test system: LS1034; conditions: Homo sapiens, LS-1034; LS1034 (intestine); 72 hours
# Protocol: as §1, §2
# [15] = test system: MDA-MB-231; conditions: Homo sapiens; MDA-MB-231 (breast); 72 hours
# Protocol: as §1, §2
# [16] = test system: MDA-MB-468; conditions: Homo sapiens; MDA-MB-468 (breast); 72 hours
# Protocol: as §1, §2
# [17] = test system: MIA-PaCa-2; conditions: Homo sapiens; MIA-PaCa-2 (pancreas); 72 hours
# Protocol: as §1, §2
# [18] = test system: NClH747; conditions: NClH747 (intestine); 72 hours
# Protocol: as §1, §2
# [19] = test system: RL95-2; conditions: RL95-2 (endometrium)
# Protocol: as §1, §2
# [20] = test system: SK-OV-3; conditions: Homo sapiens; SK-OV-3 (ovary); 72 hours
# Protocol: as §1, §2
# [21] = test system: SW 1116; conditions: Homo sapiens; SW 1116 (intestine); 72 hours
# Protocol: as §1, §2
# [22] = test system: SW1417; conditions: Homo sapiens; SW1417 (intestine); 72 hours
# Protocol: as §1, §2
# [23] = test system: SW620; conditions: Homo sapiens, SW-620; SW620 (intestine); 72 hours
# Protocol: as §1, §2
# [24] = test system: SW837; conditions: Homo sapiens; SW837 (intestine); 72 hours
# Protocol: as §1, §2
# [25] = test system: SW954; conditions: SW954 (vulva)
# Protocol: as §1, §2
# [26] = test system: T84; conditions: Homo sapiens; T84 (intestine); 72 hours
# Protocol: as §1, §2
# [27] = test system: THP-1; conditions: THP-1 (haematopoietic, lymphoid_tissue)
# Protocol: as §1, §2
# [28] = test system: YAPC; conditions: Homo sapiens; YAPC (pancreas); 72 hours
# Protocol: as §1, §2
smiles,measurement,setting,value
"NS(=O)(=O)OC[C@@H]1C[C@@H](n2ccc3c(N[C@H]4CCc5ccccc54)ncnc32)C[C@@H]1O [MLN4924, ((1S,2S,4R)-4-{4-[(1S)-2,3-dihydro-1H-inden-1-ylamino]-7H-pyrrolo[2,3-d]pyrimidin-7-yl}-2-hydroxycyclopentyl)methyl sulphamate]",pEC50,[1],6.55
same,pEC50,[2],6.19
same,Phenotype,[3]; KDM6A mutant,sensitive (The cutoff for sensitivity is a median EC50 of less than the median value of all POC's recorded in the panel (<0.36))
same,pEC50,"[3]; Homo sapiens, 72 hours",6.88
same,pEC50,[4],6.60
same,pEC50,[5],6.86
same,pEC50,[6],6.44
same,pEC50,[7],5.20
same,pEC50,[8],7.03
same,pEC50,[9],5.75
same,pEC50,[10],6.58
same,pEC50,[11],6.08
same,pEC50,[12],6.60
same,pEC50,[13],6.86
same,pEC50,[14],5.42
same,pEC50,[15],6.06
same,pEC50,[16],7.57
same,pEC50,[17],6.62
same,pEC50,[18],5.68
same,pEC50,"[19]; Homo sapiens, 72 hours",7.03
same,Phenotype,[19]; NF2 mutant,sensitive (The cutoff for sensitivity is a median EC50 of less than the median value of all POC's recorded in the panel (<0.36))
same,pEC50,[20],5.00
same,pEC50,[21],5.00
same,pEC50,[22],5.04
same,pEC50,[23],6.41
same,pEC50,[24],6.16
same,pEC50,"[25]; Homo sapiens, SW 954, 72 hours",6.49
same,Phenotype,[25]; SMAD4 mutant,sensitive (The cutoff for sensitivity is a median EC50 of less than the median value of all POC's recorded in the panel (<0.36))
same,pEC50,[26],6.25
same,pEC50,"[27]; Homo sapiens, 72 hours",6.83
same,Phenotype,[27]; KDM6A mutant,sensitive (The cutoff for sensitivity is a median EC50 of less than the median value of all POC's recorded in the panel (<0.36))
same,pEC50,[28],6.63
